# From patent publication US11946059B2, “In vivo generation of water-soluble cannabinoids in plant cell suspension cultures” (Trait Biosciences Inc., priority 2017, dated 2024)
# Test: Cannabinoid stability in solution (time course incubation)
# Format: physicochemical
# Conditions: for Day 0 concentration in solution / Day 1 concentration in solution / Day 4 concentration in solution / Day 5 concentration in solution / Day 6 concentration in solution / Day 7 concentration in solution: room temperature, shielded from light
# Method: Rather, levels increased slightly in all treatments. The absence of any residual UGTs were cross-check and confirmed as the samples were purified by SPE, washed and eluted in 30% and 65%-100% ethanol, respectively.
# Materials and Methods Example 19: Cannabinoid Stability in Solution.
# The present inventors generated a stock solution of the CBD/CBDA+glycosides mixture in water which was further diluted 10× in all treatment solutions. A 10 mL starting volume was used for all treatments, and all treatments were prepared in triplicate. […] Each sample was incubated at room temperature. Samples were stored in 15 mL polypropylene centrifuge tubes. All samples were shielded from light—tubes were wrapped in aluminum foil. Each sample was prepared in triplicate in the following buffers: water only; pH=3; pH=4; pH=7; pH=8; water only+10 mM ascorbic acid; pH=3+10 mM ascorbic acid; pH=4+10 mM ascorbic acid; pH=7+10 mM ascorbic acid; and pH=8+10 mM ascorbic acid.
# [1] = Water + AA (10 mM ascorbic acid)
# [2] = pH = 3 + AA (10 mM ascorbic acid)
# [3] = pH = 4 + AA (10 mM ascorbic acid)
# [4] = pH = 7 + AA (10 mM ascorbic acid)
# [5] = pH = 8 + AA (10 mM ascorbic acid)
smiles,measurement,setting,value
"C=C(C)[C@@H]1CCC(C)=C[C@H]1c1c(O)cc(CCCCC)cc1O [CBD, cannabidiol, reference compound]",Day 0 concentration in solution,[1],561.85 ± 86.83 µg/mL
same,Day 0 concentration in solution,Water,399.81 ± 111.06 µg/mL
same,Day 0 concentration in solution,[2],565.75 ± 40.96 µg/mL
same,Day 0 concentration in solution,pH = 3,568.71 ± 115.90 µg/mL
same,Day 0 concentration in solution,[3],524.40 ± 34.95 µg/mL
same,Day 0 concentration in solution,pH = 4,505.97 ± 5.10 µg/mL
same,Day 0 concentration in solution,[4],500.03 ± 21.45 µg/mL
same,Day 0 concentration in solution,pH = 7,528.04 ± 91.17 µg/mL
same,Day 0 concentration in solution,[5],1136.36 ± 996.36 µg/mL
same,Day 0 concentration in solution,pH = 8,513.35 ± 39.23 µg/mL
same,Day 1 concentration in solution,[1],428.63 ± 198.77 µg/mL
same,Day 1 concentration in solution,Water,629.00 ± 383.79 µg/mL
same,Day 1 concentration in solution,[2],650.49 ± 12.10 µg/mL
same,Day 1 concentration in solution,pH = 3,713.93 ± 41.47 µg/mL
same,Day 1 concentration in solution,[3],406.17 ± 210.69 µg/mL
same,Day 1 concentration in solution,pH = 4,380.77 ± 233.10 µg/mL
same,Day 1 concentration in solution,[4],505.88 ± 276.58 µg/mL
same,Day 1 concentration in solution,pH = 7,880.54 ± 5.87 µg/mL
same,Day 1 concentration in solution,[5],291.15 ± 78.65 µg/mL
same,Day 1 concentration in solution,pH = 8,747.61 ± 101.87 µg/mL
same,Day 4 concentration in solution,[1],182.66 ± 25.03 µg/mL
same,Day 4 concentration in solution,Water,432.54 ± 251.39 µg/mL
same,Day 4 concentration in solution,[2],232.39 ± 113.88 µg/mL
same,Day 4 concentration in solution,pH = 3,191.94 ± 55.68 µg/mL
same,Day 4 concentration in solution,[3],305.20 ± 97.35 µg/mL
same,Day 4 concentration in solution,pH = 4,278.33 ± 85.33 µg/mL
same,Day 4 concentration in solution,[4],398.16 ± 391.86 µg/mL
same,Day 4 concentration in solution,pH = 7,539.55 ± 260.69 µg/mL
same,Day 4 concentration in solution,[5],173.43 ± 17.53 µg/mL
same,Day 4 concentration in solution,pH = 8,560.90 ± 69.27 µg/mL
same,Day 5 concentration in solution,[1],448.64 ± 33.51 µg/mL
same,Day 5 concentration in solution,Water,466.09 ± 130.53 µg/mL
same,Day 5 concentration in solution,[2],320.48 ± 92.87 µg/mL
same,Day 5 concentration in solution,pH = 3,330.79 ± 138.28 µg/mL
same,Day 5 concentration in solution,[3],366.65 ± 92.35 µg/mL
same,Day 5 concentration in solution,pH = 4,510.50 ± 76.06 µg/mL
same,Day 5 concentration in solution,[4],353.25 ± 135.11 µg/mL
same,Day 5 concentration in solution,pH = 7,593.92 ± 6.30 µg/mL
same,Day 5 concentration in solution,[5],287.24 ± 39.56 µg/mL
same,Day 5 concentration in solution,pH = 8,498.21 ± 92.88 µg/mL
same,Day 6 concentration in solution,[1],957.17 ± 315.70 µg/mL
same,Day 6 concentration in solution,Water,179.13 ± 17.88 µg/mL
same,Day 6 concentration in solution,[2],801.14 ± 230.88 µg/mL
same,Day 6 concentration in solution,pH = 3,607.98 ± 416.07 µg/mL
same,Day 6 concentration in solution,[3],777.26 ± 56.02 µg/mL
same,Day 6 concentration in solution,pH = 4,897.52 ± 65.92 µg/mL
same,Day 6 concentration in solution,[4],828.02 ± 269.38 µg/mL
same,Day 6 concentration in solution,pH = 7,1115.01 ± 169.64 µg/mL
same,Day 6 concentration in solution,[5],847.26 ± 88.56 µg/mL
same,Day 6 concentration in solution,pH = 8,911.61 ± 84.17 µg/mL
same,Day 7 concentration in solution,[1],592.44 ± 87.97 µg/mL
same,Day 7 concentration in solution,Water,680.13 ± 229.24 µg/mL
same,Day 7 concentration in solution,[2],464.35 ± 105.43 µg/mL
same,Day 7 concentration in solution,pH = 3,563.80 ± 65.50 µg/mL
same,Day 7 concentration in solution,[3],557.34 ± 60.39 µg/mL
same,Day 7 concentration in solution,pH = 4,641.86 ± 33.49 µg/mL
same,Day 7 concentration in solution,[4],549.93 ± 39.69 µg/mL
same,Day 7 concentration in solution,pH = 7,544.28 ± 57.97 µg/mL
same,Day 7 concentration in solution,[5],630.99 ± 2.44 µg/mL
same,Day 7 concentration in solution,pH = 8,580.54 ± 94.41 µg/mL
C=C(C)C1CCC(C)=CC1c1c(O)cc(CCCCC)cc1OC1OC(COC(C)=O)C(O)C(O)C1O (stereo not shown) [1X CBD O-Acetyl Gly],Day 0 concentration in solution,[1],102.24 ± 12.18 µg/mL
same,Day 0 concentration in solution,Water,137.46 ± 35.49 µg/mL
same,Day 0 concentration in solution,[2],110.44 ± 13.31 µg/mL
same,Day 0 concentration in solution,pH = 3,126.49 ± 43.90 µg/mL
same,Day 0 concentration in solution,[3],118.27 ± 1.16 µg/mL
same,Day 0 concentration in solution,pH = 4,101.60 ± 31.49 µg/mL
same,Day 0 concentration in solution,[4],108.19 ± 19.12 µg/mL
same,Day 0 concentration in solution,pH = 7,107.55 ± 20.03 µg/mL
same,Day 0 concentration in solution,[5],137.53 ± 6.71 µg/mL
same,Day 0 concentration in solution,pH = 8,108.41 ± 12.42 µg/mL
same,Day 1 concentration in solution,[1],204.63 ± 24.09 µg/mL
same,Day 1 concentration in solution,Water,136.86 ± 139.68 µg/mL
same,Day 1 concentration in solution,[2],223.32 ± 48.67 µg/mL
same,Day 1 concentration in solution,pH = 3,216.46 ± 9.61 µg/mL
same,Day 1 concentration in solution,[3],198.56 ± 24.37 µg/mL
same,Day 1 concentration in solution,pH = 4,150.94 ± 27.25 µg/mL
same,Day 1 concentration in solution,[4],185.02 ± 35.46 µg/mL
same,Day 1 concentration in solution,pH = 7,250.75 ± 6.23 µg/mL
same,Day 1 concentration in solution,[5],180.83 ± 33.60 µg/mL
same,Day 1 concentration in solution,pH = 8,221.10 ± 16.30 µg/mL
same,Day 4 concentration in solution,[1],153.06 ± 28.19 µg/mL
same,Day 4 concentration in solution,Water,160.23 ± 23.75 µg/mL
same,Day 4 concentration in solution,[2],157.19 ± 1.58 µg/mL
same,Day 4 concentration in solution,pH = 3,174.88 ± 14.16 µg/mL
same,Day 4 concentration in solution,[3],144.44 ± 18.85 µg/mL
same,Day 4 concentration in solution,pH = 4,225.84 ± 39.59 µg/mL
same,Day 4 concentration in solution,[4],176.48 ± 33.58 µg/mL
same,Day 4 concentration in solution,pH = 7,190.05 ± 24.38 µg/mL
same,Day 4 concentration in solution,[5],152.03 ± 5.79 µg/mL
same,Day 4 concentration in solution,pH = 8,174.09 ± 59.87 µg/mL
same,Day 5 concentration in solution,[1],146.60 ± 10.68 µg/mL
same,Day 5 concentration in solution,Water,131.77 ± 33.91 µg/mL
same,Day 5 concentration in solution,[2],97.81 ± 29.67 µg/mL
same,Day 5 concentration in solution,pH = 3,83.72 ± 35.56 µg/mL
same,Day 5 concentration in solution,[3],113.89 ± 31.15 µg/mL
same,Day 5 concentration in solution,pH = 4,164.84 ± 35.61 µg/mL
same,Day 5 concentration in solution,[4],110.66 ± 48.12 µg/mL
same,Day 5 concentration in solution,pH = 7,186.93 ± 5.65 µg/mL
same,Day 5 concentration in solution,[5],92.06 ± 15.47 µg/mL
same,Day 5 concentration in solution,pH = 8,162.75 ± 31.35 µg/mL
same,Day 6 concentration in solution,[1],200.20 ± 37.42 µg/mL
same,Day 6 concentration in solution,Water,148.36 ± 33.57 µg/mL
same,Day 6 concentration in solution,[2],190.69 ± 36.71 µg/mL
same,Day 6 concentration in solution,pH = 3,175.06 ± 31.37 µg/mL
same,Day 6 concentration in solution,[3],215.72 ± 16.69 µg/mL
same,Day 6 concentration in solution,pH = 4,231.03 ± 36.34 µg/mL
same,Day 6 concentration in solution,[4],205.61 ± 26.64 µg/mL
same,Day 6 concentration in solution,pH = 7,267.45 ± 30.83 µg/mL
same,Day 6 concentration in solution,[5],217.66 ± 11.23 µg/mL
same,Day 6 concentration in solution,pH = 8,218.64 ± 22.05 µg/mL
same,Day 7 concentration in solution,[1],167.42 ± 22.79 µg/mL
same,Day 7 concentration in solution,Water,185.62 ± 22.87 µg/mL
same,Day 7 concentration in solution,[2],147.21 ± 8.07 µg/mL
same,Day 7 concentration in solution,pH = 3,195.77 ± 15.07 µg/mL
same,Day 7 concentration in solution,[3],166.23 ± 17.10 µg/mL
same,Day 7 concentration in solution,pH = 4,201.23 ± 6.99 µg/mL
same,Day 7 concentration in solution,[4],157.89 ± 17.21 µg/mL
same,Day 7 concentration in solution,pH = 7,187.10 ± 28.07 µg/mL
same,Day 7 concentration in solution,[5],181.7 ± 29.53 µg/mL
same,Day 7 concentration in solution,pH = 8,193.61 ± 21.84 µg/mL
same,change of level in solution over the incubation,"all treatments, after day 7, room temperature",not found to decrease in any sample after day 7
